Paper PMC10653547, “Synergistic effect of two antimicrobial peptides, BP203 and MAP-0403 J-2 with conventional antibiotics against colistin-resistant Escherichia coli and Klebsiella pneumoniae clinical isolates” (PLOS ONE, 2023)
Converted amounts (≈) assume the structure as drawn. Positions of bridges follow the written chain, without caps; N, C: chain ends. Non-standard residues stand in square brackets, D forms with d. Residues, ends and D or L forms follow the SMILES beside them. *: point of attachment. X1 = CC[C@H](C)CCCCC(=O)*; Dab = NCC[C@H](N)C(=O)O

Columns and labels:
[1] = system: colistin-resistant E. coli clinical isolates; assay: Checkerboard assay for synergy testing; type: cell-based, Escherichia coli
Outline: (§1)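 Two-fold serial dilutions of peptide and antibiotic, alone and in combination, in CAMHB against colistin-resistant clinical isolates at 5 × 10^5 CFU/mL, 37 °C for 20–24 h. MIC is the lowest concentration with no growth; FICI = sum of each agent's MIC in combination divided by its MIC alone.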

[2] = system: colistin-resistant K. pneumoniae clinical isolates; assay: Checkerboard assay for synergy testing; type: cell-based, Klebsiella pneumoniae
Outline: as §1

[3] = system: colistin-resistant K. pneumoniae clinical isolates; assay: Colistin susceptibility by broth microdilution (CLSI); type: cell-based, Klebsiella pneumoniae; details: for COL MIC: broth microdilution
Experimental: (§2) Ten non-duplicate clinical isolates of colistin-resistant E. coli (EC) and ten non-duplicate clinical isolates of colistin-resistant K. pneumoniae (KP) were obtained from the bacterial repository of the Division of Infectious Diseases and Tropical Medicine, Department of Medicine, Faculty of Medicine Siriraj Hospital, Mahidol University. The species identification was conducted through standard biochemical tests. Antimicrobial susceptibility testing was carried out using the disk diffusion method following CLSI guidelines. Additionally, the assessment of colistin resistance in all isolates was performed by broth microdilution following CLSI recommendations. […] The amino acid sequences of BP203 and MAP-0403 J-2 were retrieved from previous studies. These peptides are BP100 and MAP-0403 analogs, respectively. […] Antibiotic disks and defibrinated sheep blood were obtained from Oxoid (Basingstoke, UK). All culture media were purchased from Becton Dickinson (Frankin Lakes, NJ, USA). All chemicals were obtained from Sigma-Aldrich (St. Louis, MO, USA).

[4] = system: colistin-resistant E. coli clinical isolates; assay: as above; type: cell-based, Escherichia coli; details: for COL MIC: broth microdilution
Experimental: as §2

[5] = system: MRC-5 (CCL-171) normal lung fibroblast cells; assay: Cytotoxicity assay using MTT; type: cell-based, human; details: 24 h exposure
Experimental: MRC-5 (CCL-171) cell line, a representative of normal lung fibroblast cells, was used to investigate the cytotoxic effects of two AMPs, BP203 and MAP-0403 J-2. The cells were grown in Dulbecco’s Modified Eagle Medium (DMEM, Cytiva Life Sciences, Marlborough, MA, USA), supplemented with 10% fetal bovine serum (FBS), 1% penicillin (10,000 U/mL) and streptomycin (10,000 μg/mL) (Gibco, Waltham, MA, USA). 2×10^4 cells were seeded into each well of a 96-well plate and allowed to adhere for 24 h. Then, these cells were subjected to exposure to a medium containing a prepared two-fold serial dilution of BP203 or MAP-0403 J-2. […] 3-(4,5-Dimethylthiazol-2-yl)-2,5-Diphenyltetrazolium Bromide (MTT) was introduced into each well to achieve a concentration of 0.5 mg/mL followed by 4 h. incubation. Subsequently, formazan crystals were dissolved through the addition of 100 μL of a solubilizing solution composed of 10% SDS in 0.1 N HCl and the developed color was measured using a microtiter plate reader at an optical density (OD) of 570 nm. Cell viability was calculated as follows: (ODsample/ODcontrol) × 100.

[6] = checkerboard BP203 x colistin, EC-01
[7] = checkerboard BP203 x colistin, EC-02
[8] = checkerboard BP203 x colistin, EC-03
[9] = checkerboard BP203 x colistin, EC-04
[10] = checkerboard BP203 x colistin, EC-05
[11] = checkerboard BP203 x colistin, EC-06
[12] = checkerboard BP203 x colistin, EC-07
[13] = checkerboard BP203 x colistin, EC-08
[14] = checkerboard BP203 x colistin, EC-09
[15] = checkerboard BP203 x colistin, EC-10
[16] = checkerboard MAP-0403 J-2 x colistin, EC-01
[17] = checkerboard MAP-0403 J-2 x colistin, EC-02
[18] = checkerboard MAP-0403 J-2 x colistin, EC-03
[19] = checkerboard MAP-0403 J-2 x colistin, EC-04
[20] = checkerboard MAP-0403 J-2 x colistin, EC-05
[21] = checkerboard MAP-0403 J-2 x colistin, EC-06
[22] = checkerboard MAP-0403 J-2 x colistin, EC-07
[23] = checkerboard MAP-0403 J-2 x colistin, EC-08
[24] = checkerboard MAP-0403 J-2 x colistin, EC-09
[25] = checkerboard MAP-0403 J-2 x colistin, EC-10
[26] = checkerboard BP203 x colistin, KP-01
[27] = checkerboard BP203 x colistin, KP-02
[28] = checkerboard BP203 x colistin, KP-03
[29] = checkerboard BP203 x colistin, KP-04
[30] = checkerboard BP203 x colistin, KP-05
[31] = checkerboard BP203 x colistin, KP-06
[32] = checkerboard BP203 x colistin, KP-07
[33] = checkerboard BP203 x colistin, KP-08
[34] = checkerboard BP203 x colistin, KP-09
[35] = checkerboard BP203 x colistin, KP-10
[36] = checkerboard MAP-0403 J-2 x colistin, KP-01
[37] = checkerboard MAP-0403 J-2 x colistin, KP-02
[38] = checkerboard MAP-0403 J-2 x colistin, KP-03
[39] = checkerboard MAP-0403 J-2 x colistin, KP-04
[40] = checkerboard MAP-0403 J-2 x colistin, KP-05
[41] = checkerboard MAP-0403 J-2 x colistin, KP-06
[42] = checkerboard MAP-0403 J-2 x colistin, KP-07
[43] = checkerboard MAP-0403 J-2 x colistin, KP-08
[44] = checkerboard MAP-0403 J-2 x colistin, KP-09
[45] = checkerboard MAP-0403 J-2 x colistin, KP-10

## CC[C@H](C)CCCCC(=O)N[C@@H](CCN)C(=O)N[C@H](C(=O)N[C@@H](CCN)C(=O)N[C@H]1CCNC(=O)[C@H]([C@@H](C)O)NC(=O)[C@H](CCN)NC(=O)[C@H](CCN)NC(=O)[C@H](CC(C)C)NC(=O)[C@@H](CC(C)C)NC(=O)[C@H](CCN)NC1=O)[C@@H](C)O [COL, colistin] (X1-[Dab]T[Dab][Dab][Dab][dL]L[Dab][Dab]T; lactam 4-C)
[1]; [6]
  MIC alone: 4 µg/mL
  MIC combination: 2 µg/mL
[1]; [7]
  MIC alone: 4 µg/mL
  MIC combination: 2 µg/mL
[1]; [8]
  MIC alone: 4 µg/mL
  MIC combination: 1 µg/mL
[1]; [9]
  MIC alone: 4 µg/mL
  MIC combination: 2 µg/mL
[1]; [10]
  MIC alone: 4 µg/mL
  MIC combination: 2 µg/mL
[1]; [11]
  MIC alone: 4 µg/mL
  MIC combination: 4 µg/mL
[1]; [12]
  MIC alone: 8 µg/mL
  MIC combination: 4 µg/mL
[1]; [13]
  MIC alone: 8 µg/mL
  MIC combination: 8 µg/mL
[1]; [14]
  MIC alone: 16 µg/mL
  MIC combination: 8 µg/mL
[1]; [15]
  MIC alone: 16 µg/mL
  MIC combination: 2 µg/mL
[1]; [16]
  MIC alone: 4 µg/mL
  MIC combination: 0.5 µg/mL
[1]; [17]
  MIC alone: 4 µg/mL
  MIC combination: 1 µg/mL
[1]; [18]
  MIC alone: 4 µg/mL
  MIC combination: 0.5 µg/mL
[1]; [19]
  MIC alone: 4 µg/mL
  MIC combination: 2 µg/mL
[1]; [20]
  MIC alone: 4 µg/mL
  MIC combination: 1 µg/mL
[1]; [21]
  MIC alone: 4 µg/mL
  MIC combination: 2 µg/mL
[1]; [22]
  MIC alone: 8 µg/mL
  MIC combination: 2 µg/mL
[1]; [23]
  MIC alone: 8 µg/mL
  MIC combination: 2 µg/mL
[1]; [24]
  MIC alone: 16 µg/mL
  MIC combination: 4 µg/mL
[1]; [25]
  MIC alone: 16 µg/mL
  MIC combination: 4 µg/mL
[2]; [26]
  MIC alone: 4 µg/mL
  MIC combination: 4 µg/mL
[2]; [27]
  MIC alone: 8 µg/mL
  MIC combination: 8 µg/mL
[2]; [28]
  MIC alone: 32 µg/mL
  MIC combination: 32 µg/mL
[2]; [29]
  MIC alone: 16 µg/mL
  MIC combination: 16 µg/mL
[2]; [30]
  MIC alone: 16 µg/mL
  MIC combination: 16 µg/mL
[2]; [31]
  MIC alone: 16 µg/mL
  MIC combination: 16 µg/mL
[2]; [32]
  MIC alone: 64 µg/mL
  MIC combination: 0.5 µg/mL
[2]; [33]
  MIC alone: 128 µg/mL
  MIC combination: 128 µg/mL
[2]; [34]
  MIC alone: 32 µg/mL
  MIC combination: 16 µg/mL
[2]; [35]
  MIC alone: 128 µg/mL
  MIC combination: 64 µg/mL
[2]; [36]
  MIC alone: 4 µg/mL
  MIC combination: 4 µg/mL
[2]; [37]
  MIC alone: 8 µg/mL
  MIC combination: 8 µg/mL
[2]; [38]
  MIC alone: 32 µg/mL
  MIC combination: 32 µg/mL
[2]; [39]
  MIC alone: 16 µg/mL
  MIC combination: 16 µg/mL
[2]; [40]
  MIC alone: 16 µg/mL
  MIC combination: 16 µg/mL
[2]; [41]
  MIC alone: 16 µg/mL
  MIC combination: 16 µg/mL
[2]; [42]
  MIC alone: 64 µg/mL
  MIC combination: 128 µg/mL
[2]; [43]
  MIC alone: 128 µg/mL
  MIC combination: 128 µg/mL
[2]; [44]
  MIC alone: 32 µg/mL
  MIC combination: 32 µg/mL
[2]; [45]
  MIC alone: 128 µg/mL
  MIC combination: 64 µg/mL
[3]
  %Resistance: 100%
[3]; KP-01
  COL MIC: 4 µg/mL
[3]; KP-02
  COL MIC: 8 µg/mL
[3]; KP-03
  COL MIC: 32 µg/mL
[3]; KP-04
  COL MIC: 16 µg/mL
[3]; KP-05
  COL MIC: 16 µg/mL
[3]; KP-06
  COL MIC: 16 µg/mL
[3]; KP-07
  COL MIC: 64 µg/mL
[3]; KP-08
  COL MIC: 128 µg/mL
[3]; KP-09
  COL MIC: 32 µg/mL
[3]; KP-10
  COL MIC: 128 µg/mL
[3]; all K. pneumoniae isolates
  MICs, all isolates: ≥ 4 µg/mL
[4]
  %Resistance: 100%
[4]; EC-01
  COL MIC: 4 µg/mL
[4]; EC-02
  COL MIC: 4 µg/mL
[4]; EC-03
  COL MIC: 4 µg/mL
[4]; EC-04
  COL MIC: 4 µg/mL
[4]; EC-05
  COL MIC: 4 µg/mL
[4]; EC-06
  COL MIC: 4 µg/mL
[4]; EC-07
  COL MIC: 8 µg/mL
[4]; EC-08
  COL MIC: 8 µg/mL
[4]; EC-09
  COL MIC: 16 µg/mL
[4]; EC-10
  COL MIC: 16 µg/mL
[4]; all E. coli isolates
  MICs, all isolates: ≥ 4 µg/mL

## CC[C@H](C)[C@H](NC(=O)CN)C(=O)NCC(=O)N[C@@H](C)C(=O)N[C@H](C(=O)N[C@@H](CC(C)C)C(=O)N[C@@H](CCCCN)C(=O)N[C@H](C(=O)N[C@@H](CC(C)C)C(=O)N[C@H](C(=O)N[C@H](C(=O)NCC(=O)N[C@@H](CC(C)C)C(=O)N1CCC[C@H]1C(=O)N[C@@H](C)C(=O)N[C@@H](CC(C)C)C(=O)N[C@H](C(=O)N[C@@H](CO)C(=O)N[C@@H](Cc1c[nH]c2ccccc12)C(=O)N[C@H](C(=O)N[C@@H](CCCCN)C(=O)N[C@@H](CCCNC(=N)N)C(=O)N[C@@H](CCCCN)C(=O)N[C@@H](CCCNC(=N)N)C(=O)N[C@@H](CCC(N)=O)C(=O)N[C@@H](CCC(N)=O)C(N)=O)[C@@H](C)CC)[C@@H](C)CC)[C@@H](C)O)[C@@H](C)O)C(C)C)C(C)C [melittin]
[5]
  IC50: 16.13 µg/mL (≈ 5.67 µM)
